Data set [1] addresses T1, Beta-secretase 1 (Homo sapiens, UniProt P56817).
Data set [2] deals with T1, Beta-secretase 1. Kind of data set: Inhibition of BACE1 assessed as amyloid beta (1-40) production.
In data set [3] the test system is Mus musculus. The experiment in a line: Reduction in amyloid beta in mouse plasma at 10 mg/kg, po. It is filed as ADME, organism-based. Further details: dose 10 mg/kg, route oral; scale not given: the % may be the effect or the level left. As to conditions: in vivo.
Data set [4] relates to Mus musculus. The experiment in a line: Reduction in amyloid beta in mouse plasma at 50 mg/kg, po. It is filed as ADME, organism-based. Further details: dose 50 mg/kg, route oral; scale not given: the % may be the effect or the level left. The following applies: in vivo.
Data set [5] has as its system Mus musculus. Kind of data set: Reduction in amyloid beta in mouse plasma at 25 mg/kg, po. The data set is classed as ADME, organism-based. On the set-up: dose 25 mg/kg, route oral; scale not given: the % may be the effect or the level left. As to conditions: in vivo.

From ChEMBL document CHEMBL1157115, “Macrocyclic BACE inhibitors: Optimization of a micromolar hit to nanomolar leads” (Bioorg Med Chem Lett, 2010) come the findings set out here.

A word on the Ki: it is a measure of affinity in units of concentration, obtained from inhibition or displacement. Usually IC50 stands for the concentration that inhibits the measured activity by half.

T1 sequence (P56817 whole entry): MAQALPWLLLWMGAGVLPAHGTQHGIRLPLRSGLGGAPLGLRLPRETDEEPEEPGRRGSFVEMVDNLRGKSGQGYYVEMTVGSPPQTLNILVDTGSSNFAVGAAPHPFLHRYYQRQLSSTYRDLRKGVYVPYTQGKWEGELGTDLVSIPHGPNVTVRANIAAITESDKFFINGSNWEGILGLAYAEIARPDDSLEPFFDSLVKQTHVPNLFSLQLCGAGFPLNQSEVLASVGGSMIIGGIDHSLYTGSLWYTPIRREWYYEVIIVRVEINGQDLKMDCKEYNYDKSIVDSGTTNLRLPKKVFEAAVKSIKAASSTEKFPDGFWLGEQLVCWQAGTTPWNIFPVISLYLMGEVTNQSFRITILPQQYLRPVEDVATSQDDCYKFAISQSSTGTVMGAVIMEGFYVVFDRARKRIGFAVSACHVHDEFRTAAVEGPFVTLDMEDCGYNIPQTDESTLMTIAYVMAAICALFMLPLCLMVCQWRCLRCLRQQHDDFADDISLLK

For `NC1=Nc2cc(F)c3cc2CN1[C@H](C1CCCCC1)CCC(=O)N(C1CCCCC1)CCc1cccc(c1)O3`, the affinity on Beta-secretase 1 [1] corresponds to a Ki of 8 nM. Further, on Beta-secretase 1 [2], the IC50 was 30 nM.

At Beta-secretase 1 [1], `NC1=Nc2cnc3cc2CN1[C@H](C1CCCCC1)CCC(=O)N(C1CCCCC1)CCc1cccc(c1)O3` registered a Ki of 5 nM. Moreover, the IC50 on Beta-secretase 1 [2] was 7 nM.

For the molecule `CC(C)[C@@H]1CCC(=O)N(C2CCOCC2)CCc2cccc(c2)Oc2ccc3c(c2)CN1C(N)=N3`, the IC50 on Beta-secretase 1 [2] is 685 nM.

Regarding `NC1=Nc2ccc3cc2CN1[C@H](C1CCCCC1)CCC(=O)N(C1CCCCC1)CCc1cccc(c1)O3`, the Activity came out at 13% with Mus musculus [3], 23% with Mus musculus [4] and 22% in the data set with Mus musculus [5].
